Test results taken from patent US6894185B2, “Substituted chiral allosteric hemoglobin modifiers” (Allós Therapeutics, Inc., priority 1999, dated 2005).
Several values for one entry are separate records, joined by “and”; a condition that tells them apart may be missing. Equal entries are not always repeated.

Columns and labels:
[1] = biological target: T1, hemoglobin (Homo sapiens, UniProt P68871+P69905); test: In vitro whole blood studies (multi-point tonometry and blood gas analysis); format: cell-based; details: for ΔP50 ± S.D. (P50 effector − P50control) / P50e (P50 value in the presence of the effector): Table VI, 2.5 mM Hb, 5.0 mM effector; for P50e (P50 value in the presence of the effector): single runs, DMSO stock
T1 construct: The whole blood samples were collected in heparinized tubes from healthy volunteers; from tissue; host or cells: human whole blood (heparinized) from healthy volunteers
T1 sequence (P69905 2-142 limits assumed): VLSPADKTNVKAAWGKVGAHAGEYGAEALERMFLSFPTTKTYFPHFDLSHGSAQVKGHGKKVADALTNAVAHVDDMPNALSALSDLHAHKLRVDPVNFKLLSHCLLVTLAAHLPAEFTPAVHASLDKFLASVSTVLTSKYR
T1 sequence (P68871 2-147 limits assumed): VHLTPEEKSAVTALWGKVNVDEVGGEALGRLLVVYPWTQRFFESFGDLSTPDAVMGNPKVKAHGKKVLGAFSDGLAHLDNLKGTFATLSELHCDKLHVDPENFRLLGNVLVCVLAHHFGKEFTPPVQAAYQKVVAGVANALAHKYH
Procedure: (§1) Structure-allosteric activity relationships were determined from the synthetic chiral effectors comparing the shift in the oxygen binding curve of Hb solutions using a Hemox-Analyzer. In vitro biological activity testing in the presence of plasma proteins was also performed on selected enantiomers and racemates (multi-point tonometry and blood gas analysis) to screen for candidates with potential clinical use. SAR studies compared the degree in shift in P50 values, i.e., the partial pressure of molecular oxygen necessary to half-saturate hemoglobin. An effector that decreases Hb oxygen affinity increases the P50 value relative to the control. Thus, the activity or potency of each analog could be expressed by the ratio P50 (effector)/P50(control). Tables and II and III summarize the p50 values obtained using human whole blood, while Tables IV and V summarize the P50 and the Hill coefficient values (n50) at half-saturation obtained using Hemox-analyzer. The slope of the log of the oxygen binding curves is known as the Hill coefficient. The Hill coefficient measures the degree of cooperativity in binding for an allosteric protein, the normal range for human blood is 2.7-3.2. Table VI presents the results from the whole blood studies given as a ΔP50 and Hill coefficient (n50) values for the enantiomers and racemates.
The whole blood samples were collected in heparinized tubes from healthy volunteers and stored over ice. The sodium salts of the compounds were prepared as described earlier. A 200 mM stock solution of the effector was prepared in DMSO. A 5.0 mM test solution was prepared from 50 μL of the 200 mM test solution and 1950 μL of whole blood. The blood samples were incubated in IL 237 tonometers (Instrumentation Laboratories, Inc. Lexington, Mass.) for approximately 10-12 min at 37° C. and equilibrated at three separate concentrations of O2 (20%, 40%, and 60%). After equilibration at each concentration of O2, a sample was removed via syringe and aspirated into a IL 1420 Automated Blood Gas Analyzer (Instrumentation Laboratories, Inc. Lexington, Mass.) and a IL 482 and IL 682 Co-oximeter (Instrumentation Laboratories, Inc. Lexington, Mass.) to determine the pH, pCO2, pO2 and the hemoglobin oxygen saturation values (sO2), respectively. The measured values for pO2 and sO2 at each oxygen saturation level were then subjected to a non-linear regression analysis using the program Scientist (Micromath, Salt Lake City, Utah) to calculate the P50 and Hill coefficient values.

[2] = biological target: T2, purified stripped human adult hemoglobin (Homo sapiens, UniProt P68871+P69905); test: Hemoglobin solution oxygen equilibrium studies (HEMOX-analyzer); format: biochemical; details: Table IV; 0.5 mM effector, 100 mM bis-Tris buffer, pH 7.2
T2 construct: using purified stripped human adult hemoglobin as described previously; from tissue
T2 sequence (P69905 2-142 limits assumed): as the sequence (P69905 2-142 limits assumed) above
T2 sequence (P68871 2-147 limits assumed): as the sequence (P68871 2-147 limits assumed) above

[3] = biological target: T2, purified stripped human adult hemoglobin; test: as above; format: biochemical; details: Table IV, 0.5 mM effector, pH 7.2; for n50 (Hill coefficient at 50% saturation): n50 control 2.7; for P50e/P50c: ratio to P50 control with no effector (5.0 mmHg)
Procedure: as §1, with “Tables and II and III summarize the p50 values obtained using human whole blood, while Tables IV and V summarize the P50 and the Hill coefficient values (n50) at half-saturation obtained using Hemox-analyzer.” left out, “2.7-3.2.” for “2.7-3.2. Table VI presents the results from the whole blood studies given as a ΔP50 and Hill coefficient (n50) values for the enantiomers and racemates.”
The effectors were prepared as 10 mM stock solutions in 100 mM NaCl bis-Tris buffer, pH 7.2. After the addition of an excess of NaHCO3, the solution was warmed to 60° C. and stirred for several hours. The solutions were back titrated carefully to pH 7.2 at 25° C. prior to use. Oxygen equilibrium measurements were performed with the HEMOX-analyzer (TCS Medical products, Southampton, Pa.) using purified stripped human adult hemoglobin as described previously. 4 mL of buffer, 100 mM NaCl, 50 mM bis-Tris at pH 7.2, is added to a cuvette in the HEMOX, followed by 200 μL of the 10 mM effector stock solution. Hemoglobin is then added to achieve a final Hb concentration of […] on heme basis. Catalase (20 μg/mL) and 50 mM EDTA were added to limit oxidation of the hemes. […] The saturation of hemoglobin was determined spectrophotometrically with a dual wavelength spectrophotometer (577 nm and 586.2 nm). The solution was stirred constantly during the 45-60 min recordings. The P50 and n50 values were calculated by linear regression analysis from data points comprised between 40 and 60% oxygen saturation.

| Compound | Whole Blood Δp50 mm Hg ([1]; Table III) | melting point | further results |
| --- | --- | --- | --- |
| Cc1cc(C)cc(NC(=O)Cc2ccc(OC3(C(=O)N[C@@H](CCCCN)C(=O)O)CCCC3)cc2)c1 [Compound 62, 1-[4-(((3,5-dimethylanilino)carbonyl)methyl)phenoxy]cyclopentanecarbonyl-L-lysine] | −0.6 mm Hg | 124 to 125 °C | – |
| Cc1cc(C)cc(NC(=O)Cc2ccc(OC3(C(=O)N[C@H](Cc4ccccc4)C(=O)O)CCCC3)cc2)c1 [Compound 44, 1-[4-(((3,5-dimethylanilino)carbonyl)methyl)phenoxy]cyclopentanecarbonyl-D-phenylalanine] | 38 mm Hg | 106 to 108 °C | – |
| Cc1cc(C)cc(NC(=O)Cc2ccc(OC3(C(=O)N[C@H](CO)C(=O)O)CCCC3)cc2)c1 [Compound 49, 1-[4-(((3,5-dimethylanilino)carbonyl)methyl)phenoxy]cyclopentanecarbonyl-D-serine] | 16 mm Hg | 58 to 59 °C | – |
| CC[C@H](C)[C@H](NC(=O)C1(Oc2ccc(CC(=O)Nc3cc(C)cc(C)c3)cc2)CCCC1)C(=O)O [Compound 53, 1-[4-(((3,5-dimethylanilino)carbonyl)methyl)phenoxy]cyclopentanecarbonyl-L-isoleucine] | 13 mm Hg | 127 to 128 °C | – |
| Cc1cc(C)cc(NC(=O)Cc2ccc(OC3(C(=O)N[C@@H](C)C(=O)O)CCCC3)cc2)c1 [Compound 39, 1-[4-(((3,5-dimethylanilino)carbonyl)methyl)phenoxy] cyclopentanecarbonyl-L-alanine] | 22 mm Hg | 117 to 118 °C | – |
| Cc1cc(C)cc(NC(=O)Cc2ccc(OC3(C(=O)N[C@H](CC(C)C)C(=O)O)CCCC3)cc2)c1 [Compound 40, 1-[4-(((3,5-dimethylanilino)carbonyl)methyl)phenoxy]cyclopentanecarbonyl-D-leucine] | 40 mm Hg | 119 to 120 °C | – |
| Cc1cc(C)cc(NC(=O)Cc2ccc(OC3(C(=O)N[C@H](C(=O)O)[C@@H](C)O)CCCC3)cc2)c1 [Compound 58, 1-[4-(((3,5-dimethylanilino)carbonyl)methyl)phenoxy]cyclopentanecarbonyl-L-threonine] | 13 mm Hg | 64 to 66 °C | – |
| Cc1cc(C)cc(NC(=O)Cc2ccc(OC3(C(=O)N[C@@H](Cc4ccc(O)cc4)C(=O)O)CCCC3)cc2)c1 [Compound 54, 1-[4-(((3,5-dimethylanilino)carbonyl)methyl)phenoxy]cyclopentanecarbonyl-L-tyrosine] | 21 mm Hg | 74 to 75 °C | – |
| Cc1cc(C)cc(NC(=O)Cc2ccc(OC3(C(=O)N[C@H](Cc4c[nH]c5ccccc45)C(=O)O)CCCC3)cc2)c1 [Compound 46, 1-[4-(((3,5-dimethylanilino)carbonyl)methyl)phenoxy]cyclopentanecarbonyl-D-tryptophan] | 20 mm Hg | 83 to 84 °C | – |
| Cc1cc(C)cc(NC(=O)Cc2ccc(OC3(C(=O)N4CCC[C@H]4C(=O)O)CCCC3)cc2)c1 [Compound 56, 1-[4-(((3,5-dimethylanilino)carbonyl)methyl)phenoxy]cyclopentanecarbonyl-L-proline] | 17 mm Hg | 71 to 72 °C | – |
| CCCC(C)(Oc1ccc(CC(=O)Nc2cc(C)cc(C)c2)cc1)C(=O)O (centres unmarked) [Compound 6, 2-[4-[[(3,5-dimethylanilino)carbonyl]methyl]phenoxy]-2-methylpentanoic acid] | – | – | P50e (oxygen pressure at which Hb is 50% saturated with oxygen in the presence of the effector) [2]: 12 mmHg; Whole Blood Δp50 mm Hg ([1]; Table II): 25.6 mm Hg; n50 (Hill coefficient at 50% saturation) [3]: 2.7; P50e/P50c [3]: 2.3 |
| Cc1cc(C)cc(NC(=O)Cc2ccc(OC3(C(=O)N[C@@H](CC(C)C)C(=O)O)CCCC3)cc2)c1 [Compound 41, 1-[4-(((3,5-dimethylanilino)carbonyl)methyl)phenoxy]cyclopentanecarbonyl-L-leucine] | 15 mm Hg | 119 to 120 °C | – |
| CSCC[C@@H](NC(=O)C1(Oc2ccc(CC(=O)Nc3cc(C)cc(C)c3)cc2)CCCC1)C(=O)O [Compound 51, 1-[4-(((3,5-dimethylanilino)carbonyl)methyl)phenoxy]cyclopentanecarbonyl-D-methionine] | 27 mm Hg | 54 to 55 °C | – |
| Cc1cc(Cl)cc(NC(=O)Cc2ccc(OC3(C(=O)O)CCC(C)C3)cc2)c1 (centres unmarked) [Compound 9, 1-[4-[[(3-chloro-5-methylanilino)carbonyl]methyl]phenoxy]-3-methylcyclopentane carboxylic acid] | – | – | P50e (oxygen pressure at which Hb is 50% saturated with oxygen in the presence of the effector) [2]: 14 mmHg; Whole Blood Δp50 mm Hg ([1]; Table II): 15 mm Hg; n50 (Hill coefficient at 50% saturation) [3]: 2.4; P50e/P50c [3]: 2.8 |
| Cc1cc(C)cc(NC(=O)Cc2ccc(OC3(C(=O)N[C@H](C(=O)O)C(C)C)CCCC3)cc2)c1 [Compound 43, 1-[4-(((3,5-dimethylanilino)carbonyl)methyl)phenoxy]cyclopentanecarbonyl-L-valine] | 30 mm Hg | 104 to 106 °C | – |
| Cc1cc(C)cc(NC(=O)Cc2ccc(OC(C)C(=O)O)cc2)c1 (racemic) [Compound 18, 2-[4-[[(3,5-dimethylanilino)carbonyl]methyl]phenoxy]-propionic acid] | – | – | P50e (oxygen pressure at which Hb is 50% saturated with oxygen in the presence of the effector) [2]: 9.3 mmHg; ΔP50 ± S.D. (P50 effector − P50control) [1]: 18.2 ± 2.6 mmHg; P50e (P50 value in the presence of the effector) [1]: 47.2 mmHg and 43.5 mmHg; n50 (Hill coefficient at 50% saturation) [3]: 2.6; P50e/P50c [3]: 1.9 |
| Cc1cc(C)cc(NC(=O)Cc2ccc(OC3(C(=O)N[C@@H](CO)C(=O)O)CCCC3)cc2)c1 [Compound 50, 1-[4-(((3,5-dimethylanilino)carbonyl)methyl)phenoxy]cyclopentanecarbonyl-L-serine] | 5 mm Hg | 58 to 59 °C | – |
| Cc1cc(C)cc(NC(=O)Cc2ccc(OC3(C(=O)O)CCCC(C)C3)cc2)c1 (centres unmarked) [Compound 11, 1-[4-[[(3,5-dimethylanilino)carbonyl]methyl]phenoxy]-3-methylcyclohexane carboxylic acid] | – | – | P50e (oxygen pressure at which Hb is 50% saturated with oxygen in the presence of the effector) [2]: 10 mmHg; Whole Blood Δp50 mm Hg ([1]; Table II): 16 mm Hg; n50 (Hill coefficient at 50% saturation) [3]: 2.5; P50e/P50c [3]: 2.1 |
| Cc1cc(C)cc(NC(=O)Cc2ccc(OC(C)(C)C(=O)O)cc2)c1 [RSR13, reference compound] | – | – | P50e (oxygen pressure at which Hb is 50% saturated with oxygen in the presence of the effector) [2]: 23 mmHg; ΔP50 ± S.D. (P50 effector − P50control) [1]: 45.2 ± 2.2 mmHg; P50e (P50 value in the presence of the effector) [1]: 76.5 mmHg and 73.4 mmHg; n50 (Hill coefficient at 50% saturation) [3]: 2.3; P50e/P50c [3]: 4.7 |
